Assay results: patent publication US20230404914A1 (priority 2020, published 2023)

How the values were obtained:
[1] = Clinical study: plasma concentrations after OTF administration; details: for plasma level following OTF compared to intravenous administration of 20 mg (S)-ketamine / Cmax: human; for plasma level following OTF compared to intravenous administration of 20 mg (S)-ketamine: in vivo; for Cmax: plasma, Cmax plasma concentration
[2] = Clinical study: pharmacokinetic model (NONMEM), Tmax, AUC, oral bioavailability
[3] = averaged; cited from earlier work
[4] = Clinical study: safety, compatibility, adverse events
[5] = human, plasma, other: sublingual or buccal, 50 mg
[6] = human, plasma, other: sublingual or buccal, 100 mg
[7] = All data, 50 mg OTF based on formulation 15
[8] = All data, 2 × 50 mg OTF based on formulation 15
[9] = Buccally, 50 mg OTF based on formulation 15
[10] = Buccally, 2 × 50 mg OTF based on formulation 15
[11] = Sublingually, 50 mg OTF based on formulation 15
[12] = Sublingually, 2 × 50 mg OTF based on formulation 15
[13] = 50 mg (S)-Ketamine OTF, calculated using PK model
[14] = 100 mg (S)-Ketamine OTF, calculated using PK model

For `CNC1(c2ccccc2Cl)CCCCC1=O` (racemic) [(S)-ketamine, (S)-(±)-2-(2-chlorophenyl)-2-(methylamino)cyclohexan-1-one], the “plasma level following OTF compared to intravenous administration of 20 mg (S)-ketamine” value [1] was “higher for intravenous administration”, the Cmax ([1]; 50 mg, Buccally, 50 mg OTF based on formulation 15) was 117 ng/mL and the Cmax ([1]; 50 mg, Sublingually, 50 mg OTF based on formulation 15) was 95 ng/mL. The Cmax ([1]; 100 mg, Buccally, 2 × 50 mg OTF based on formulation 15) was 158 ng/mL, the Cmax ([1]; 100 mg, Sublingually, 2 × 50 mg OTF based on formulation 15) was 138 ng/mL and the Cmax ([1]; other: sublingual or buccal (all data), 50 mg, All data, 50 mg OTF based on formulation 15) was 101 ng/mL. It also gave a Cmax ([1]; other: sublingual or buccal (all data), 100 mg, All data, 2 × 50 mg OTF based on formulation 15) of 143 ng/mL, an AUC(0-t) [2, 5] of 139 ng·h/mL and a Tmax [2, 5] of 18.8 min. For the same compound, the AUC(0-t) [2, 6] was 222 ng·h/mL, the Tmax [2, 6] was 19.1 min and the lethal dose [3] was 4.2 g/70 kg. The “Dizziness (prevalence of events)” value ([4]; 20 mg (S)-ketamine IV) was 4, the “Drowsiness (prevalence of events)” value ([4]; 20 mg (S)-ketamine IV) was 3 and the “Dry eyes (prevalence of events)” value ([4]; 20 mg (S)-ketamine IV) was 1. The “Headache (prevalence of events)” value ([4]; 20 mg (S)-ketamine IV) was 3, the “High blood pressure (SBP >180 mm Hg) (prevalence of events)” value ([4]; 20 mg (S)-ketamine IV) was 2 and the “Nausea (prevalence of events)” value ([4]; 20 mg (S)-ketamine IV) was 2. The “Sweating (prevalence of events)” value ([4]; 20 mg (S)-ketamine IV) was 1, the “Total side effects (prevalence of events)” value (“Total side effects” below) ([4]; 20 mg (S)-ketamine IV) was 17 and the “Whistling noise in the ear (prevalence of events)” value ([4]; 20 mg (S)-ketamine IV) was 1. The “Blurred vision (prevalence of events)” value ([4]; 50 mg (S)-ketamine OTF) was 1, the “Bradykinesia (prevalence of events)” value ([4]; 50 mg (S)-ketamine OTF) was 1 and the “Dizziness (prevalence of events)” value ([4]; 50 mg (S)-ketamine OTF) was 1. The “Feeling of drunkenness (prevalence of events)” value ([4]; 50 mg (S)-ketamine OTF) was 2, the “Headache (prevalence of events)” value ([4]; 50 mg (S)-ketamine OTF) was 1 and the “Nausea (prevalence of events)” value ([4]; 50 mg (S)-ketamine OTF) was 1. For the same compound, the “Total side effects” value ([4]; 50 mg (S)-ketamine OTF) was 7, the “Bradykinesia (prevalence of events)” value ([4]; 100 mg (S)-ketamine OTF) was 1 and the “Dizziness (prevalence of events)” value ([4]; 100 mg (S)-ketamine OTF) was 3. The “Headache (prevalence of events)” value ([4]; 100 mg (S)-ketamine OTF) was 2, the “Nausea (prevalence of events)” value ([4]; 100 mg (S)-ketamine OTF) was 1 and the “Numbness of the tongue (prevalence of events)” value ([4]; 100 mg (S)-ketamine OTF) was 2. For the same compound, the “Total side effects” value ([4]; 100 mg (S)-ketamine OTF) was 9, the “adverse events in total” value ([4]; whole study, OTF and IV) was 33 and the serious adverse events ([4]; whole study, OTF and IV) was “None of these was a serious adverse event”. For the same compound, the “test subjects reporting at least one adverse event” value ([4]; whole study, OTF and IV) was 18.
`N[C@]1(c2ccccc2Cl)CCC[C@H](O)C1=O` [(S)-Hydroxynorketamine] showed a Cmax plasma concentration [1, 7] of 94 ng/mL, a Cmax plasma concentration [1, 8] of 171 ng/mL and a Cmax plasma concentration [1, 9] of 81 ng/mL. The Cmax plasma concentration [1, 10] was 165 ng/mL, the Cmax plasma concentration [1, 11] was 98 ng/mL and the Cmax plasma concentration [1, 12] was 173 ng/mL. For the same compound, the “plasma level following OTF compared to intravenous administration of 20 mg (S)-ketamine” value [1] was “higher following administration of an OTF”, the Tmax [2, 13] was 81 (69-92) min and the Tmax [2, 14] was 109 (89-130) min.
`N[C@]1(c2ccccc2Cl)CCCCC1=O` [(S)-Norketamine] showed a Cmax plasma concentration [1, 7] of 254 ng/mL, a Cmax plasma concentration [1, 8] of 330 ng/mL and a Cmax plasma concentration [1, 9] of 242 ng/mL. For the same compound, the Cmax plasma concentration [1, 10] was 450 ng/mL, the Cmax plasma concentration [1, 11] was 258 ng/mL and the Cmax plasma concentration [1, 12] was 323 ng/mL. The “plasma level following OTF compared to intravenous administration of 20 mg (S)-ketamine” value [1] was “higher following administration of an OTF”, the Tmax [2, 13] was 61 (53-68) min and the Tmax [2, 14] was 78 (66-91) min.
